Consider 17 compounds from PubChem BioAssay (NCI).

SMILES strings stand for the structures.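 Five concentrations, 48 hours, 96-well plates. The concentration for 50% growth inhibition is given as GI50. TGI marks complete inhibition of growth.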 A value given as a limit tells only on which side of the number the result lay.

What all share (test): NCI tumour cell line growth inhibition, 48 h
In test [1] the test system is HS 578T breast.
The subject of test [2] is IGROV1 ovarian.
For test [3], the system named is OVCAR-5 ovarian.
Test [4] deals with DU-145 prostate.
Test [5] deals with OVCAR-8 ovarian.
For test [6], the system named is RXF 393 renal.
In test [7] the test system is SK-MEL-2 melanoma.
Test [8] has as its system NCI/ADR-RES ovarian.
Test [9] has as its system SNB-19 CNS.
The test system of test [10] is HOP-92 NSCLC.

Consider `Cc1cc(OCc2ccc(C(F)(F)F)cc2)c2c(c1)C(=O)C=C(NCCN1CCCC1)C2=O`, for which the GI50 in test [1] was 2.02 µM; in test [2], 6.69 µM; in test [3], 3.39 µM; in test [4], 6.15 µM; in test [5], 3.25 µM; in test [6], 1.37 µM. The GI50 was 1.99 µM in test [7], 6.04 µM in [8], 2.46 µM in [9] and 1.96 µM in [10]. Besides, the TGI in [1] turned out to be 5.23 µM; in test [2] it was 25.1 µM; in test [3], 12.3 µM; in [4], 18.6 µM; in test [5], 12.1 µM; in test [6], 2.94 µM. Also, the TGI in test [7] worked out at 4.08 µM; in [8] it was 20.5 µM; in test [9] it was 6.2 µM; in test [10], 7.38 µM.

Take `CC(=O)OC1CC2(C)C(=CC1C1SCCS1)CCC1C2CCC2(C)C(OC(C)=O)CCC12` (configuration not stated): the TGI in [1] is 49.9 µM; in test [2] it was over 100 µM; in [3] it was over 100 µM; in test [4], over 100 µM; in test [5], over 100 µM; in test [6], 67.3 µM. Moreover, the TGI in test [7], in test [8], in test [9] and in test [10] was over 100 µM each time.

In the case of `CC(C)[C@@H](C(=O)O[C@@H]1/C=C/C(=O)O[C@@H](C)CCC/C=C/[C@@H]2C[C@H](O)C[C@H]21)N(C)C`, the GI50 is 6.4 µM in test [1]; 30.3 µM in test [2]; 35.9 µM in test [3]; 29.4 µM in test [4]; 18.1 µM in test [5]; 7.33 µM in test [6]. The GI50 in test [7] was 23.1 µM; in test [8] it was 24.6 µM; in test [9], 37 µM; in test [10], 0.0403 µM. Besides, the TGI in test [1] was 50.5 µM; in [2], over 89 µM; in test [3], over 100 µM; in test [4], over 100 µM; in [5] it was over 83.2 µM; in [6] it was 44.1 µM. Further, the TGI in [7] is over 68.3 µM; in test [8] it was over 93.6 µM; in [9], over 100 µM; in test [10], 0.0954 µM.

As to `CC(NNC(=S)N1CCN(c2ccccn2)CC1)c1nccc2ccccc12` (configuration not stated), the TGI in test [1] came out at 61.6 µM; in test [2] it was 18.5 µM; in test [3], 14.2 µM; in test [4], 13.8 µM; in test [5] it was 15.7 µM; in test [6] it was 8.53 µM. For the same compound, the TGI stood at 18.3 µM in test [7], 12 µM in test [8], 17 µM in test [9] and 7.79 µM in test [10].

Turning to `COc1ccc(C(=O)/C=C/c2ccc(OCc3cccc(C(F)(F)F)c3)c(OC)c2)cc1OC`, the GI50 in test [1] was 92.4 µM; in test [2], 60.2 µM; in test [3], 292 µM; in [4], 72.6 µM; in [5] it was 48.8 µM; in test [6], 68.3 µM. Further, the GI50 in [7] is 187 µM; in test [8] it was 42.1 µM; in test [9], 78.9 µM; in test [10] it was 142 µM. Besides, the TGI in [1] is over 1000 µM; in test [2] it was over 1000 µM; in test [3], over 1000 µM; in [4], over 1000 µM; in test [5] it was over 1000 µM; in [6] it was 562 µM. The TGI in test [7], in [8], in [9] and in test [10] was over 1000 µM each time.

Turning to `CC(=O)C1=C(C)N(Cc2ccccc2)C2(O)C=CC(=O)C3=C(O)c4ccccc4C(=O)C312` (configuration not stated), the GI50 in [1] is 18.5 µM; in test [2], 6.2 µM; in [3], 6.28 µM; in test [4], 4.57 µM; in test [5], 6.25 µM; in test [6], 3.27 µM. Moreover, the GI50 was 20.8 µM in test [7], 3.02 µM in [8], 16 µM in [9] and 3.73 µM in test [10]. For the same compound, the TGI is 60 µM in test [1]; over 100 µM in [2]; 25 µM in test [3]; 19.7 µM in test [4]; 30 µM in [5]; 17.5 µM in test [6]. The TGI is over 100 µM in test [7], over 100 µM in [8], 44.1 µM in [9] and 7.77 µM in test [10].

Take `CC1(C)OCC2OC(n3cnc4c(N)nc(Cl)nc43)C(OS(C)(=O)=O)C2O1` (configuration not stated): the TGI in test [1], in [2], in test [3], in test [4], in [5] and in test [6] was over 100 µM each time. Further, the TGI in [7], in [8], in [9] and in [10] was over 100 µM in each case.

Turning to `CCC(=O)OCOc1ccc(/C=C2\CCC(CN(C)C)C2=O)cc1` (configuration not stated), the TGI in test [1] was over 79 µM; in test [2], 16.3 µM; in test [3], 31.6 µM; in test [4], 30.6 µM; in [5] it was 11.2 µM; in test [6], 9.55 µM. In addition, the TGI in [7] amounted to 27.9 µM; in test [8], 6.78 µM; in test [9], 32.5 µM; in [10] it was 29.5 µM.

For the compound `CCN1CCN(c2ccc(NC(=O)Nc3nc4ccc(-c5ccccc5OC)cc4s3)cc2)CC1`, the GI50 was 1.95 µM in test [1]; 1.87 µM in [2]; 1.8 µM in test [3]; 1.75 µM in [4]; 1.99 µM in test [5]; 1.7 µM in test [6]. For the same compound, the GI50 in [7] is 1.94 µM; in [8], 1.72 µM; in [9], 2.03 µM; in test [10], 1.47 µM. The TGI in test [1] stood at 4.45 µM; in test [2], 3.61 µM; in test [3] it was 3.37 µM; in [4], 3.26 µM; in test [5], 3.66 µM; in test [6] it was 3.3 µM. Moreover, the TGI in [7] stood at 3.61 µM; in test [8] it was 3.35 µM; in test [9] it was 3.65 µM; in [10], 3.75 µM.

`CC1=C(CCC(C)CO)O[C@H]2C[C@H]3[C@@H]4CC[C@H]5C[C@@H](O)CC[C@]5(C)[C@H]4CC(=O)[C@]3(C)[C@@H]12` (some centres not stated): the TGI turned out to be 52.5 µM in test [1]; 55 µM in [2]; 71.1 µM in test [3]; 55.1 µM in [4]; 44.3 µM in test [5]; 73.8 µM in [6]. Further, the TGI in test [7] came to 30.6 µM; in [8], 40.6 µM; in test [9], 55.5 µM; in test [10], 67.3 µM.

For `COC(=O)C1=C(C)NC(C)=C(C(=O)OC)C1c1cccc(/[N+]([O-])=C/c2ccccc2)c1`, the TGI is over 100 µM in test [1]; over 100 µM in [2]; over 100 µM in test [3]; over 100 µM in [4]; 32.7 µM in test [5]; 30.3 µM in [6]. Moreover, the TGI was over 100 µM in [7], 58 µM in test [8], over 100 µM in test [9] and 38 µM in test [10].

For `CCC(=O)NC1=C(Cl)C(=O)C(NC(=O)CC)=C(Cl)C1=O`, the GI50 in test [1] is 26.6 µM; in test [2], 20.6 µM; in [3], 20.6 µM; in test [4], 9.49 µM; in [5] it was 37.4 µM; in test [6], 6.64 µM. Also, the GI50 in [7] was 20.6 µM; in [8], 24 µM; in [9] it was over 41 µM; in test [10], 9.98 µM. Further, the TGI is 69.7 µM in [1]; 37 µM in test [2]; 40.5 µM in [3]; 22.3 µM in [4]; over 60.6 µM in [5]; 12.8 µM in test [6]. For the same compound, the TGI was 39.5 µM in test [7], 58.6 µM in [8], over 55.7 µM in [9] and 28.8 µM in test [10].

`O=C1/C=C/[C@@H](O)[C@@H]2C[C@@H](O)C[C@H]2/C=C/CCC[C@H](CCO)O1`: the GI50 is 0.0519 µM in test [1]; 0.382 µM in test [2]; 0.396 µM in test [3]; 0.426 µM in test [4]; 0.153 µM in test [5]; 0.0272 µM in test [6]. The GI50 is 0.244 µM in [7], 0.176 µM in test [8], 0.377 µM in test [9] and 0.233 µM in test [10]. Also, the TGI in [1] is over 100 µM; in test [2], over 100 µM; in test [3] it was over 100 µM; in [4] it was over 100 µM; in test [6], 0.117 µM; in test [7] it was 0.734 µM. Besides, the values for the TGI in [9] and in test [10] were over 100 µM and 0.93 µM, respectively.

Regarding `CN1CCN(Cc2ccc(NC(=O)c3cncc(C#Cc4ccc(N)nc4)c3)cc2C(F)(F)F)CC1`, the GI50 is 0.486 µM in [1]; 0.476 µM in test [2]; 1.38 µM in test [3]; 0.845 µM in [4]; 1.73 µM in [5]; 0.524 µM in test [6]. The GI50 is 0.363 µM in [7], 1.9 µM in test [8], 2.6 µM in test [9] and 0.408 µM in [10]. Besides, the TGI in test [1] was 2.16 µM; in test [2] it was 3.22 µM; in test [3] it was 7.22 µM; in [4], 6.71 µM; in test [5], 9.9 µM; in test [6], 2.14 µM. Moreover, the TGI in [7] was determined as 1.36 µM; in test [8], 10.3 µM; in test [9], 9.44 µM; in test [10] it was 1.76 µM.

On to `CCOC(=O)C1=C(Nc2ccc(OC)cc2)C(N)=NC1=N`, for which the GI50 is 4.17 µM in [1]; 5.5 µM in [2]; 5.09 µM in test [3]; 3.49 µM in test [4]; 4.63 µM in test [5]; 1.72 µM in test [6]. The GI50 in [7] was 8.03 µM; in test [8] it was 3.38 µM; in [9] it was 3.68 µM; in [10], 2.56 µM. Moreover, the TGI in test [1] is over 100 µM; in test [2], over 100 µM; in test [3], over 100 µM; in [4], over 100 µM; in [5], over 100 µM; in test [6], 6.47 µM. Moreover, the TGI in test [7], in test [8], in [9] and in test [10] was over 100 µM each time.

Regarding `COc1cccc(N2CC(O)=C(c3nc4ccccc4s3)C2=N)c1`, the GI50 is 0.47 µM in test [1]; 0.277 µM in test [2]; 1.75 µM in test [4]; 0.838 µM in test [5]; 0.488 µM in [6]; 7.14 µM in test [7]. Moreover, the GI50 was 0.286 µM in test [8], 0.702 µM in test [9] and 3.99 µM in test [10]. The TGI in test [1] is over 44.7 µM; in test [2], over 75.6 µM; in test [3] it was over 95 µM; in test [4] it was over 100 µM; in test [5], 65.9 µM; in test [6] it was 45.1 µM. The TGI in test [7] is over 100 µM; in test [8], over 23.2 µM; in test [9], over 100 µM; in test [10] it was over 57.2 µM.

Turning to `Nc1nc(-c2ccc3c(c2)/C(=C\c2cc(Br)c(O)c(Br)c2)C(=O)N3)cs1`, the GI50 in test [1] was 9.98 µM; in test [2] it was over 25 µM; in test [3] it was over 25 µM; in [4], 18.6 µM; in test [5] it was over 25 µM; in test [6], 12.5 µM. Besides, the GI50 in test [7] is 6.96 µM; in test [8] it was over 23.4 µM; in test [9] it was over 25 µM; in test [10] it was 9.19 µM. The TGI in test [1], in [2], in test [3], in test [4], in [5] and in [6] was over 25 µM throughout. Also, the TGI is over 17.6 µM in [7], over 25 µM in test [8], over 25 µM in test [9] and over 25 µM in [10].
